Laboratory results taken from the supplement of paper PMC10307832.

Columns and labels:
Assay in all cases: relative viability (nuclei count vs DMSO), 5 days (fraction); higher = more cells survive
Serdemetan + Pemetrexed = compound: c1ccc2c(CCNc3ccc(Nc4ccncc4)cc3)c[nH]c2c1 [Serdemetan] + Nc1nc2[nH]cc(CCc3ccc(C(=O)N[C@@H](CCC(=O)O)C(=O)O)cc3)c2c(=O)[nH]1 [Pemetrexed] (partner 0.2 µM)
In short: (§1)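 Relative viability was taken as the ratio of nuclei in treated wells to nuclei in vehicle wells. Lung cancer cell lines in 1536-well plates received compounds by pin tool one day after seeding, either one drug alone or a fixed anchor-drug dose plus five library-drug doses (not always all listed) in √10 steps. Nuclei were counted on 4× images after 5 days of treatment, and values are medians of duplicate plates.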

Selisistat + OSI-027 = compound: C1CC(C2=C(C1)C3=C(N2)C=CC(=C3)Cl)C(=O)N [Selisistat] + COc1cccc2cc(-c3nc([C@H]4CC[C@H](C(=O)O)CC4)n4ncnc(N)c34)[nH]c12 [OSI-027] (partner 0.5 µM)
In short: as §1

Serdemetan = compound: c1ccc2c(CCNc3ccc(Nc4ccncc4)cc3)c[nH]c2c1 [Serdemetan]
In short: (§2)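 Following overnight incubation at 37 °C, lung cancer cell lines in 1536-well plates were pinned with five library-drug doses (not always all listed) in √10 steps on vehicle-anchored plates. The cells then spent 5 days without medium change before a combined fix, permeabilisation and Hoechst stain, 4× imaging and MetaXpress nuclear counts. Viability is the treated-to-vehicle ratio of nuclei, taken as the median across plates. Only plates with control CV below 25% and at least one doubling passed.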

Selisistat = compound: C1CC(C2=C(C1)C3=C(N2)C=CC(=C3)Cl)C(=O)N [Selisistat]
In short: as §2

| Cell Line | relative viability (Serdemetan + Pemetrexed; first compound 0.04 µM) | relative viability (Serdemetan + Pemetrexed; first compound 0.1265 µM) | relative viability (Serdemetan + Pemetrexed; first compound 0.4 µM) | relative viability (Serdemetan + Pemetrexed; first compound 1.265 µM) | relative viability (Serdemetan + Pemetrexed; first compound 4 µM) | relative viability (Selisistat + OSI-027; first compound 0.4 µM) | relative viability (Selisistat + OSI-027; first compound 1.265 µM) | relative viability (Selisistat + OSI-027; first compound 4 µM) | relative viability (Selisistat + OSI-027; first compound 12.65 µM) | relative viability (Selisistat + OSI-027; first compound 40 µM) | relative viability (Serdemetan; 0.04 µM) | relative viability (Serdemetan; 0.1265 µM) | relative viability (Serdemetan; 0.4 µM) | relative viability (Serdemetan; 1.265 µM) | relative viability (Serdemetan; 4 µM) | relative viability (Selisistat; 0.4 µM) | relative viability (Selisistat; 1.265 µM) | relative viability (Selisistat; 4 µM) | relative viability (Selisistat; 12.65 µM) | relative viability (Selisistat; 40 µM) |
| --- | --- | --- | --- | --- | --- | --- | --- | --- | --- | --- | --- | --- | --- | --- | --- | --- | --- | --- | --- | --- |
| RERF-LC-KJ | 0.455 | 0.456 | 0.452 | 0.475 | 0.49 | 0.742 | 0.525 | 0.51 | 0.532 | 0.533 | 0.99 | 0.948 | 0.93 | 0.942 | 0.939 | 1.06 | 0.969 | 0.927 | 0.836 | 0.87 |
| SK-LU-1 | 0.941 | 0.895 | 1.07 | 0.908 | 0.722 | 0.431 | 0.366 | 0.334 | 0.359 | 0.416 | 1.02 | 0.999 | 1.1 | 0.802 | 0.828 | 1.08 | 1.07 | 1.08 | 1.08 | 1.13 |
| SK-MES-1 | 0.938 | 0.89 | 0.824 | 0.772 | 0.841 | 0.638 | 0.668 | 0.657 | 0.437 | 0.646 | 0.959 | 1.01 | 0.971 | 0.831 | 0.741 | 1.09 | 0.986 | 0.955 | 0.93 | 0.976 |
| SW 900 | 0.461 | 0.51 | 0.485 | 0.324 | 0.41 | 0.447 | 0.57 | 0.462 | 0.495 | 0.484 | 0.876 | 0.941 | 0.926 | 0.547 | 0.666 | 1 | 0.801 | 0.656 | 0.846 | 0.858 |
| SW 1573 | 0.869 | 0.851 | 0.887 | 0.689 | 0.376 | 0.704 | 0.616 | 0.664 | 0.772 | 0.545 | 0.904 | 1.11 | 0.966 | 0.48 | 0.343 | 1.12 | 0.89 | 0.896 | 1.03 | 1.05 |
